# Reference: patent US20230017045A1, “PYRIDINE AND PYRIMIDINE CARBOXYLATE HERBICIDES AND METHODS OF USE THEREOF” (Dow AgroSciences LLC, priority 2017, published 2023)
# Tested on: test plant species
# Assay: Post-emergent herbicidal activity test (greenhouse, foliar spray, visual growth reduction)
# Format: in vivo
# Settings: post-emergence, 336 h, ALOMY: blackgrass (Alopecurus myosuroides), 140 g ai/ha, 14 days after application, read-out: Visual Growth Reduction (%) 14 Days After Application, ALOMY
# In short: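 Visual scoring 14 d after treatment (0 = no injury, 100 = complete control) against nontreated and solvent-blank plants gave percent growth reduction. Foliar application used a track sprayer delivering 187 L/ha to seedlings at first or second true leaf stage, grown at 23–29 °C day, ~15 h photoperiod.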
row,Structure (SMILES),pest or weed control at 140 g/ha [%]
1,"COC(=O)c1nc(-c2ccc(C(C)=O)cc2Cl)ccc1Cl [F26, methyl 6-(4-acetyl-2-chlorophenyl)-3-chloropicolinate]",0 to 29
2,"O=C(O)c1nc(-c2ccnc(Cl)c2Cl)ccc1Cl [F133, 2′,3′,5-Trichloro-[2,4′-bipyridine]-6-carboxylic acid]",0 to 29

# Same assay, conditions: post-emergence, 336 h, AMARE: redroot pigweed (Amaranthus retroflexus), 140 g ai/ha, 14 days after application, read-out: Visual Growth Reduction (%) 14 Days After Application, AMARE
row,Structure (SMILES),pest or weed control at 140 g/ha [%]
1,"COC(=O)c1nc(-c2ccc(C(C)=O)cc2Cl)ccc1Cl [F26, methyl 6-(4-acetyl-2-chlorophenyl)-3-chloropicolinate]",0 to 29
2,"O=C(O)c1nc(-c2ccnc(Cl)c2Cl)ccc1Cl [F133, 2′,3′,5-Trichloro-[2,4′-bipyridine]-6-carboxylic acid]",0 to 29

# Same assay, conditions: post-emergence, 336 h, AVEFA: wild oat (Avena fatua), 140 g ai/ha, 14 days after application, read-out: Visual Growth Reduction (%) 14 Days After Application, AVEFA
row,Structure (SMILES),pest or weed control at 140 g/ha [%]
1,"COC(=O)c1nc(-c2ccc(C(C)=O)cc2Cl)ccc1Cl [F26, methyl 6-(4-acetyl-2-chlorophenyl)-3-chloropicolinate]",0 to 29
2,"O=C(O)c1nc(-c2ccnc(Cl)c2Cl)ccc1Cl [F133, 2′,3′,5-Trichloro-[2,4′-bipyridine]-6-carboxylic acid]",0 to 29

# Same assay, conditions: post-emergence, 336 h, CHEAL: lambsquarters (Chenopodium album), 140 g ai/ha, 14 days after application, read-out: Visual Growth Reduction (%) 14 Days After Application, CHEAL
row,Structure (SMILES),pest or weed control at 140 g/ha [%]
1,"COC(=O)c1nc(-c2ccc(C(C)=O)cc2Cl)ccc1Cl [F26, methyl 6-(4-acetyl-2-chlorophenyl)-3-chloropicolinate]",0 to 29
2,"O=C(O)c1nc(-c2ccnc(Cl)c2Cl)ccc1Cl [F133, 2′,3′,5-Trichloro-[2,4′-bipyridine]-6-carboxylic acid]",75 to 84

# Same assay, conditions: post-emergence, 336 h, CIRAR: canada thistle (Cirsium arvense), 140 g ai/ha, 14 days after application, read-out: Visual Growth Reduction (%) 14 Days After Application, CIRAR
row,Structure (SMILES),pest or weed control at 140 g/ha [%]
1,"COC(=O)c1nc(-c2ccc(C(C)=O)cc2Cl)ccc1Cl [F26, methyl 6-(4-acetyl-2-chlorophenyl)-3-chloropicolinate]",0 to 29
2,"O=C(O)c1nc(-c2ccnc(Cl)c2Cl)ccc1Cl [F133, 2′,3′,5-Trichloro-[2,4′-bipyridine]-6-carboxylic acid]",0 to 29

# Same assay, conditions: post-emergence, 336 h, CYPES: yellow nutsedge (Cyperus esculentus), 140 g ai/ha, 14 days after application, read-out: Visual Growth Reduction (%) 14 Days After Application, CYPES
row,Structure (SMILES),pest or weed control at 140 g/ha [%]
1,"COC(=O)c1nc(-c2ccc(C(C)=O)cc2Cl)ccc1Cl [F26, methyl 6-(4-acetyl-2-chlorophenyl)-3-chloropicolinate]",0 to 29
2,"O=C(O)c1nc(-c2ccnc(Cl)c2Cl)ccc1Cl [F133, 2′,3′,5-Trichloro-[2,4′-bipyridine]-6-carboxylic acid]",0 to 29

# Same assay, conditions: post-emergence, 336 h, DIGSA: crabgrass (Digitaria sanguinalis), 140 g ai/ha, 14 days after application, read-out: Visual Growth Reduction (%) 14 Days After Application, DIGSA
row,Structure (SMILES),pest or weed control at 140 g/ha [%]
1,"COC(=O)c1nc(-c2ccc(C(C)=O)cc2Cl)ccc1Cl [F26, methyl 6-(4-acetyl-2-chlorophenyl)-3-chloropicolinate]",0 to 29
2,"O=C(O)c1nc(-c2ccnc(Cl)c2Cl)ccc1Cl [F133, 2′,3′,5-Trichloro-[2,4′-bipyridine]-6-carboxylic acid]",45 to 59

# Same assay, conditions: post-emergence, 336 h, ECHCG: barnyardgrass (Echinochloa crus-galli), 140 g ai/ha, 14 days after application, read-out: Visual Growth Reduction (%) 14 Days After Application, ECHCG
row,Structure (SMILES),pest or weed control at 140 g/ha [%]
1,"COC(=O)c1nc(-c2ccc(C(C)=O)cc2Cl)ccc1Cl [F26, methyl 6-(4-acetyl-2-chlorophenyl)-3-chloropicolinate]",0 to 29
2,"O=C(O)c1nc(-c2ccnc(Cl)c2Cl)ccc1Cl [F133, 2′,3′,5-Trichloro-[2,4′-bipyridine]-6-carboxylic acid]",0 to 29

# Same assay, conditions: post-emergence, 336 h, IPOHE: ivy-leaf morning glory (Ipomoea hederacea), 140 g ai/ha, 14 days after application, read-out: Visual Growth Reduction (%) 14 Days After Application, IPOHE
row,Structure (SMILES),pest or weed control at 140 g/ha [%]
1,"COC(=O)c1nc(-c2ccc(C(C)=O)cc2Cl)ccc1Cl [F26, methyl 6-(4-acetyl-2-chlorophenyl)-3-chloropicolinate]",0 to 29
2,"O=C(O)c1nc(-c2ccnc(Cl)c2Cl)ccc1Cl [F133, 2′,3′,5-Trichloro-[2,4′-bipyridine]-6-carboxylic acid]",45 to 59

# Same assay, conditions: post-emergence, 336 h, KCHSC: kochia (Bassia scoparia), 140 g ai/ha, 14 days after application, read-out: Visual Growth Reduction (%) 14 Days After Application, KCHSC
row,Structure (SMILES),pest or weed control at 140 g/ha [%]
1,"COC(=O)c1nc(-c2ccc(C(C)=O)cc2Cl)ccc1Cl [F26, methyl 6-(4-acetyl-2-chlorophenyl)-3-chloropicolinate]",0 to 29
2,"O=C(O)c1nc(-c2ccnc(Cl)c2Cl)ccc1Cl [F133, 2′,3′,5-Trichloro-[2,4′-bipyridine]-6-carboxylic acid]",0 to 29

# Same assay, conditions: post-emergence, 336 h, ORYSA: rice (Oryza sativa), 140 g ai/ha, 14 days after application, read-out: Visual Growth Reduction (%) 14 Days After Application, ORYSA
row,Structure (SMILES),pest or weed control at 140 g/ha [%]
1,"COC(=O)c1nc(-c2ccc(C(C)=O)cc2Cl)ccc1Cl [F26, methyl 6-(4-acetyl-2-chlorophenyl)-3-chloropicolinate]",0 to 29
2,"O=C(O)c1nc(-c2ccnc(Cl)c2Cl)ccc1Cl [F133, 2′,3′,5-Trichloro-[2,4′-bipyridine]-6-carboxylic acid]",0 to 29

# Same assay, conditions: post-emergence, 336 h, SETFA: giant foxtail (Setaria faberi), 140 g ai/ha, 14 days after application, read-out: Visual Growth Reduction (%) 14 Days After Application, SETFA
row,Structure (SMILES),pest or weed control at 140 g/ha [%]
1,"COC(=O)c1nc(-c2ccc(C(C)=O)cc2Cl)ccc1Cl [F26, methyl 6-(4-acetyl-2-chlorophenyl)-3-chloropicolinate]",0 to 29
2,"O=C(O)c1nc(-c2ccnc(Cl)c2Cl)ccc1Cl [F133, 2′,3′,5-Trichloro-[2,4′-bipyridine]-6-carboxylic acid]",0 to 29

# Same assay, conditions: post-emergence, 336 h, SORVU: grain sorghum (Sorghum vulgare), 140 g ai/ha, 14 days after application, read-out: Visual Growth Reduction (%) 14 Days After Application, SORVU
row,Structure (SMILES),pest or weed control at 140 g/ha [%]
1,"COC(=O)c1nc(-c2ccc(C(C)=O)cc2Cl)ccc1Cl [F26, methyl 6-(4-acetyl-2-chlorophenyl)-3-chloropicolinate]",0 to 29
2,"O=C(O)c1nc(-c2ccnc(Cl)c2Cl)ccc1Cl [F133, 2′,3′,5-Trichloro-[2,4′-bipyridine]-6-carboxylic acid]",60 to 74

# Same assay, conditions: post-emergence, 336 h, STEME: common chickweed (Stellaria media), 140 g ai/ha, 14 days after application, read-out: Visual Growth Reduction (%) 14 Days After Application, STEME
row,Structure (SMILES),pest or weed control at 140 g/ha [%]
1,"COC(=O)c1nc(-c2ccc(C(C)=O)cc2Cl)ccc1Cl [F26, methyl 6-(4-acetyl-2-chlorophenyl)-3-chloropicolinate]",0 to 29
2,"O=C(O)c1nc(-c2ccnc(Cl)c2Cl)ccc1Cl [F133, 2′,3′,5-Trichloro-[2,4′-bipyridine]-6-carboxylic acid]",0 to 29

# Same assay, conditions: post-emergence, 336 h, TRZAS: wheat, spring (Triticum aestivum), 140 g ai/ha, 14 days after application, read-out: Visual Growth Reduction (%) 14 Days After Application, TRZAS
row,Structure (SMILES),pest or weed control at 140 g/ha [%]
1,"COC(=O)c1nc(-c2ccc(C(C)=O)cc2Cl)ccc1Cl [F26, methyl 6-(4-acetyl-2-chlorophenyl)-3-chloropicolinate]",0 to 29
2,"O=C(O)c1nc(-c2ccnc(Cl)c2Cl)ccc1Cl [F133, 2′,3′,5-Trichloro-[2,4′-bipyridine]-6-carboxylic acid]",0 to 29
